Measured values taken from PubChem BioAssay AID1963832 (Molecular Pharmacology Branch, DTP, NCI, 2024).

Tested on: 885724-159-R-J1-PDC complex spheroid viability
Test: Anticancer human tumor 885724-159-R-J1-PDC patient-derived pancreatic adenocarcinoma cell line growth inhibition [POLQ]
Settings: for IC50: curve of first compound; for viability, T/C: stronger effect = lower value
In short: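 Three-cell-type spheroids modelling solid tumor plus stroma served as the readout system; POL inhibitors were tested individually and in combination, concentration ranges set by clinical Cmax where known.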

[1] = second compound 0.0316 µM, first compound 0.0316 µM
[2] = second compound 0.0316 µM, first compound 0.1 µM
[3] = second compound 0.0316 µM, first compound 0.316 µM
[4] = second compound 0.0316 µM, first compound 1 µM
[5] = second compound 0.1 µM, first compound 0.0316 µM
[6] = second compound 0.1 µM, first compound 0.1 µM
[7] = second compound 0.1 µM, first compound 0.316 µM
[8] = second compound 0.1 µM, first compound 1 µM
[9] = second compound 0.316 µM, first compound 0.0316 µM
[10] = second compound 0.316 µM, first compound 0.1 µM
[11] = second compound 0.316 µM, first compound 0.316 µM
[12] = second compound 0.316 µM, first compound 1 µM
[13] = second compound 1 µM, first compound 0.0316 µM
[14] = second compound 1 µM, first compound 0.1 µM
[15] = second compound 1 µM, first compound 0.316 µM
[16] = second compound 1 µM, first compound 1 µM
[17] = second compound 3.16 µM, first compound 0.0316 µM
[18] = second compound 3.16 µM, first compound 0.1 µM
[19] = second compound 3.16 µM, first compound 0.316 µM
[20] = second compound 3.16 µM, first compound 1 µM
[21] = second compound 10 µM, first compound 0.0316 µM
[22] = second compound 10 µM, first compound 0.1 µM
[23] = second compound 10 µM, first compound 0.316 µM
[24] = second compound 10 µM, first compound 1 µM
[25] = second compound 0.0316 µM, first compound 0.00316 µM
[26] = second compound 0.0316 µM, first compound 0.01 µM
[27] = second compound 0.1 µM, first compound 0.00316 µM
[28] = second compound 0.1 µM, first compound 0.01 µM
[29] = second compound 0.316 µM, first compound 0.00316 µM
[30] = second compound 0.316 µM, first compound 0.01 µM
[31] = second compound 1 µM, first compound 0.00316 µM
[32] = second compound 1 µM, first compound 0.01 µM
[33] = second compound 3.16 µM, first compound 0.00316 µM
[34] = second compound 3.16 µM, first compound 0.01 µM
[35] = second compound 10 µM, first compound 0.00316 µM
[36] = second compound 10 µM, first compound 0.01 µM
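Also: spheroids exposed to compounds for 7 days.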

## CNCc1ccc(-c2[nH]c3cc(F)cc4c3c2CCNC4=O)cc1 + COC1C(OC(N)=O)C(O)C(Oc2ccc3c(O)c(NC(=O)c4ccc(O)c(CC=C(C)C)c4)c(=O)oc3c2C)OC1(C)C
Second compound 0.0316 µM
  IC50: > 10000 nM
Second compound 0.1 µM
  IC50: > 10000 nM
Second compound 0.316 µM
  IC50: > 10000 nM
Second compound 1 µM
  IC50: > 10000 nM
Second compound 3.16 µM
  IC50: > 10000 nM
Second compound 10 µM
  IC50: > 10000 nM
[1]
  viability, T/C: 95.9%
[2]
  viability, T/C: 96.7%
[3]
  viability, T/C: 95.4%
[4]
  viability, T/C: 94.7%
Second compound 0.0316 µM, first compound 3.16 µM
  viability, T/C: 93.2%
Second compound 0.0316 µM, first compound 10 µM
  viability, T/C: 75.9%
[5]
  viability, T/C: 96.4%
[6]
  viability, T/C: 96.5%
[7]
  viability, T/C: 93.5%
[8]
  viability, T/C: 108%
Second compound 0.1 µM, first compound 3.16 µM
  viability, T/C: 92.7%
Second compound 0.1 µM, first compound 10 µM
  viability, T/C: 84%
[9]
  viability, T/C: 101%
[10]
  viability, T/C: 96.4%
[11]
  viability, T/C: 93.5%
[12]
  viability, T/C: 95.5%
Second compound 0.316 µM, first compound 3.16 µM
  viability, T/C: 91%
Second compound 0.316 µM, first compound 10 µM
  viability, T/C: 81.2%
[13]
  viability, T/C: 102%
[14]
  viability, T/C: 91.5%
[15]
  viability, T/C: 87.2%
[16]
  viability, T/C: 85.4%
Second compound 1 µM, first compound 3.16 µM
  viability, T/C: 92.4%
Second compound 1 µM, first compound 10 µM
  viability, T/C: 78.3%
[17]
  viability, T/C: 93.3%
[18]
  viability, T/C: 88.2%
[19]
  viability, T/C: 90.3%
[20]
  viability, T/C: 84.2%
Second compound 3.16 µM, first compound 3.16 µM
  viability, T/C: 89%
Second compound 3.16 µM, first compound 10 µM
  viability, T/C: 82.5%
[21]
  viability, T/C: 102%
[22]
  viability, T/C: 94.8%
[23]
  viability, T/C: 84%
[24]
  viability, T/C: 87.7%
Second compound 10 µM, first compound 3.16 µM
  viability, T/C: 88.2%
Second compound 10 µM, first compound 10 µM
  viability, T/C: 88.9%

## COc1cccc(OCCCN)c1-c1cc(Nc2cnc(C#N)cn2)n[nH]1 + COC1C(OC(N)=O)C(O)C(Oc2ccc3c(O)c(NC(=O)c4ccc(O)c(CC=C(C)C)c4)c(=O)oc3c2C)OC1(C)C
Second compound 0.0316 µM
  IC50: 5.21 nM
Second compound 0.1 µM
  IC50: 7.41 nM
Second compound 0.316 µM
  IC50: 7.34 nM
Second compound 1 µM
  IC50: 8.1 nM
Second compound 3.16 µM
  IC50: 17.6 nM
Second compound 10 µM
  IC50: 6.72 nM
[25]
  viability, T/C: 58.8%
[26]
  viability, T/C: 45.9%
[1]
  viability, T/C: 40.8%
[2]
  viability, T/C: 41.1%
[3]
  viability, T/C: 44.4%
[4]
  viability, T/C: 46.8%
[27]
  viability, T/C: 62.2%
[28]
  viability, T/C: 46.1%
[5]
  viability, T/C: 41.2%
[6]
  viability, T/C: 42.3%
[7]
  viability, T/C: 45.4%
[8]
  viability, T/C: 39%
[29]
  viability, T/C: 62.6%
[30]
  viability, T/C: 45.3%
[9]
  viability, T/C: 43.5%
[10]
  viability, T/C: 46.9%
[11]
  viability, T/C: 42.5%
[12]
  viability, T/C: 40.8%
[31]
  viability, T/C: 63.2%
[32]
  viability, T/C: 48.5%
[13]
  viability, T/C: 41.8%
[14]
  viability, T/C: 35.9%
[15]
  viability, T/C: 45.4%
[16]
  viability, T/C: 46.4%
[33]
  viability, T/C: 58.7%
[34]
  viability, T/C: 55%
[17]
  viability, T/C: 44.6%
[18]
  viability, T/C: 44.2%
[19]
  viability, T/C: 43.2%
[20]
  viability, T/C: 39.6%
[35]
  viability, T/C: 59.4%
[36]
  viability, T/C: 45.4%
[21]
  viability, T/C: 41.5%
[22]
  viability, T/C: 44.3%
[23]
  viability, T/C: 43.5%
[24]
  viability, T/C: 45.1%

## Cn1ncnc1[C@H]1c2n[nH]c(=O)c3cc(F)cc(c23)N[C@@H]1c1ccc(F)cc1 + COC1C(OC(N)=O)C(O)C(Oc2ccc3c(O)c(NC(=O)c4ccc(O)c(CC=C(C)C)c4)c(=O)oc3c2C)OC1(C)C
Second compound 0.0316 µM
  IC50: > 100 nM
Second compound 0.1 µM
  IC50: > 100 nM
Second compound 0.316 µM
  IC50: > 100 nM
Second compound 1 µM
  IC50: > 100 nM
Second compound 3.16 µM
  IC50: > 100 nM
Second compound 10 µM
  IC50: > 100 nM
Second compound 0.0316 µM, first compound 0.000316 µM
  viability, T/C: 91.2%
Second compound 0.0316 µM, first compound 0.001 µM
  viability, T/C: 103%
[25]
  viability, T/C: 92.2%
[26]
  viability, T/C: 94.9%
[1]
  viability, T/C: 87%
[2]
  viability, T/C: 72.1%
Second compound 0.1 µM, first compound 0.000316 µM
  viability, T/C: 101%
Second compound 0.1 µM, first compound 0.001 µM
  viability, T/C: 95.3%
[27]
  viability, T/C: 94.5%
[28]
  viability, T/C: 93.6%
[5]
  viability, T/C: 89.8%
[6]
  viability, T/C: 82.8%
Second compound 0.316 µM, first compound 0.000316 µM
  viability, T/C: 113%
Second compound 0.316 µM, first compound 0.001 µM
  viability, T/C: 92%
[29]
  viability, T/C: 95.6%
[30]
  viability, T/C: 95.4%
[9]
  viability, T/C: 89.4%
[10]
  viability, T/C: 78.7%
Second compound 1 µM, first compound 0.000316 µM
  viability, T/C: 105%
Second compound 1 µM, first compound 0.001 µM
  viability, T/C: 86.6%
[31]
  viability, T/C: 95.7%
[32]
  viability, T/C: 85%
[13]
  viability, T/C: 83.6%
[14]
  viability, T/C: 77%
Second compound 3.16 µM, first compound 0.000316 µM
  viability, T/C: 105%
Second compound 3.16 µM, first compound 0.001 µM
  viability, T/C: 87.5%
[33]
  viability, T/C: 90.2%
[34]
  viability, T/C: 98.5%
[17]
  viability, T/C: 93.7%
[18]
  viability, T/C: 75.7%
Second compound 10 µM, first compound 0.000316 µM
  viability, T/C: 95.1%
Second compound 10 µM, first compound 0.001 µM
  viability, T/C: 97.4%
[35]
  viability, T/C: 85%
[36]
  viability, T/C: 90.5%
[21]
  viability, T/C: 88.4%
[22]
  viability, T/C: 75.3%
